Measurements as given in patent US7449454B2, “Metallotexaphyrin derivatives” (Pharmacyclics, Inc., priority 2000, dated 2008).

Assays:
[1] = Solubility in H2O (deionized water)
Method: This mixture was then shaken, and 1.5 ml of the supernatant removed by a syringe equipped with a 0.22 μm filter unit. After discarding the first 1 mL of the filtrate, the remaining 0.5 mL was collected and saved. 0.1 ml of the saved filtrate was added to a 25 ml flask and diluted with 4% Acetic Acid/Methanol solution to volume. The absorption of the diluted solution at 475 nm was measured by UVN is at 1, 4, and 24 hours after the solutions had been shaken as described above.

[2] = Extinction coefficient by UV/Vis; format: physicochemical; settings: for ε(methanol): in M-1·cm-1 (unit assumed)
Method: Four samples of increasing amounts of a test compound of Formula I (between 3 mg and 11 mg) were put into separate 10 ml flasks and dissolved in methanol. Each of the solutions and one control sample (containing no test compound) were diluted to volume. The absorption at 475 nm was measured by UV/Vis and recorded for each of the five samples. The extinction coefficient for each sample was determined accordingly.
The extinction coefficient for the test compound at 475 nm was determined by averaging the extinction coefficient for the four samples (not including the control). The above steps were repeated (at 733 nm) to determine the extinction coefficient for the test compound at 733 nm. When determining the extinction coefficient of aggregated test compounds LuTex acetate, cholate or deoxycholate, the extinction coefficient at 733 nm is not measured. Instead, the above steps were repeated substituting 4% acetic acid/methanol for methanol.

[3] = Octanol/water partition coefficient; format: physicochemical
Method: The partition coefficient was measured using an adaptation of the procedure outlined in Drug Stability: Principles and Practices (AAI, Inc. Wilmington, N.C., 2nd Edition, 1995). A 10 ml solution of 10 mg/ml of the test compound of Formula I dissolved in deionized water was placed in a separator funnel, to which 10 ml of 1-octanol was added. The combined mixture was stirred. The mixture was left to separate and the absorption of the compound was measured in the water phase and in the octanol phase by UV/Vis at 413-417 nm (413-417 offers the closest match in absorbance between the octanol phase and the water phase. The octanol water partition coefficient is determined by the formula: […]
The above steps were then repeated using a 10 ml sample of test compound at 1.0 mg/ml.

[4] = Solution pH in deionized water; format: physicochemical; settings: H2O
Method: The test compound was mixed in 5 ml of deionized water to achieve a 2 mg/ml solution. The solution pH was measured using a Beckman pH meter.

[5] = Plasma concentration after injection in atherosclerotic rabbits; format: in vivo, NZW rabbits; settings: rabbit, 10 mg/kg injected, 2 mg/ml solution
Method: Plasma pK and biodistribution of the different test compounds of Formula I in plaque are determined and compared with the plasma pK and biodistribution in normal arterial walls. Sixteen normal male NZW rabbits, each weighing 3.5-4.0 kg are obtained from R&R Rabbitry in Stanwood Oreg. Each rabbit is given an intramuscular injection of Ketamine/Rompun [(8.4 mg/kg)/(1.2 mg/kg)] and allowed to relax until the anesthetic takes effect. To induce deep anesthesia, the rabbits then receive a second dose of Ketamine/Rompun [(8.4 mg/kg)/1.2 mg/kg)] via intravenous injection. To expose the abdomen and back legs, each rabbit is shaved with a size 40 blade. Their eyes are coated with lubricant eye ointment (Artificial Tears).
A femoral artery cut down is performed on the right side of the rabbits. Lidocaine (2%) is injected subcutaneously around the femoral artery as a local anesthetic and also applied topically to prevent spasms. A No.4 French Fogarty balloon embolectomy catheter is inserted retrograde 15 cm into the abdominal aorta. The balloon is inflated with 0.5-0.75 ml of hypaque contrast and pulled 3.5 cm distally toward the femoral artery six times. The catheter is then withdrawn. […]
A 3 ml blood sample is taken from each of the rabbits and the cholesterol level for each sample is determined and recorded. […]
The clearance rate of the test compound is also particularly important to measure. Plasma samples from each of the test compounds (see part A of this example) are mixed with 10 mM Triton X-100 and the fluorescence optimum is measured at 745 nm by scanning between 700-800 nm using a 450 nm excitation. A standard curve is run to insure that the fluorescence of the samples lies on the linear portion of the curve. The entire fluorescence emission spectrum is observed by using both a monochromator and CCD array. This permits differentiating between the peak at 745 nm and any possible extraneous fluorescence that might have a different optimum, and tail off into the 745 nm region. Test compound accumulation is expressed as μg drug/g tissue (wet weight) or μg/ml in plasma.

Row | Substance | solubility in deionized water [1] [mg/mL] | ε(4% acetate/methanol) ([2]; 4% acetate/methanol, wavelength not given) [M⁻¹ cm⁻¹] | ε(methanol) ([2]; wavelength not printed (aggregated compound, 733 nm not measured)) | K (octanol/water) ([3]; 0.05 mg/ml) | pH(octanol/water) ([3]; 0.05 mg/ml) | K (octanol/water) ([3]; 0.5 mg/ml) | pH(octanol/water) ([3]; 0.5 mg/ml) | pH [4] | ε(methanol) ([2]; at 475 nm) | ε(methanol) ([2]; at 733 nm) | Plasma Concentration ([5]; 1 Hour post injection) [ng/mL] | Plasma Concentration ([5]; 5 Hours post injection) [ng/mL] | Plasma Concentration ([5]; 24 Hours post injection) [ng/mL]
1 | lutetium complex of 4,5-diethyl-10,23-dimethyl-9,24-bis(3-hydroxypropyl)-16,17-bis[2-[2-(2-methoxyethoxy)ethoxy]ethoxy]pentaazapentacyclo-[20.2.1.1^3,6.1^8,11.0^14,19]heptacosa-1,3,5,7,9,11(27),12,14,16,18,20,22(25),23-tridecaene bis gluconate [LuTex bis gluconate] | 50 to 80 | – | – | – | – | – | – | – | – | – | – | – | –
2 | The lutetium (III) complex of: 4,5-diethyl-10,23-dimethyl-9,24-bis(3-hydroxypropyl)-16,17-bis[2-[2-(2-methoxyethoxy)ethoxy]ethoxy]pentaazapentacyclo[20.2.1.1^3,6.1^8,11.0^14,19]-heptacosa-1,3,5,7,9,11 (27),12,14,16,18,20,22(25),23-tridecaene bis deoxycholate [LuTex bis deoxycholate] | – | 135000 | 136000 | – | – | – | – | – | – | – | – | – | –
3 | The lutetium (III) complex of: 4,5-diethyl-10,23-dimethyl-9,24-bis(3-hydroxypropyl)-16,17-bis[2-[2-(2-methoxyethoxy)ethoxy]ethoxy]pentaazapentacyclo[20.2.1.1^3,6.1^8,11.0^14,19]-heptacosa-1,3,5,7,9,11(27),12,14,16,18,20,22(25), 23-tridecaene bis formate [LuTex bis formate] | 2 to 2.5 | – | – | 0.02 | 5.6 | 0.02 | 5.1 | 5.5 | 126400 | 41700 | 3900 | 500 | 300
4 | The lutetium (III) complex of: 4,5-diethyl-10,23-dimethyl-9,24-bis(3-hydroxypropyl)-16,17-bis[2-[2-(2-methoxyethoxy)ethoxy]ethoxy]pentaazapentacyclo[20.2.1.1^3,6.1^8,11.0^14,19]-heptacosa-1,3,5,7,9,11(27),12,14,16,18,20,22(25), 23-tridecaene bis benzoate [LuTex bis benzoate] | – | – | – | 0.34 | 6.6 | – | – | 6.1 | 122800 | 40600 | – | – | –
